We go through 17 molecules from ChEMBL document CHEMBL3991601, “The target landscape of clinical kinase drugs” (Science, 2017).

Calls of active or inactive are those of the source. Cut-off read from the data, not from the text of the source, for most assays here: actives have a measured Kd and inactives only a lower limit.

In assay [1] the target is Calcium/calmodulin-dependent protein kinase type II subunit gamma (Homo sapiens, UniProt Q13555).
Assay [2] concerns the target T1, Mitogen-activated protein kinase kinase kinase 6 (Homo sapiens, UniProt O95382).
T1 sequence (O95382 whole entry): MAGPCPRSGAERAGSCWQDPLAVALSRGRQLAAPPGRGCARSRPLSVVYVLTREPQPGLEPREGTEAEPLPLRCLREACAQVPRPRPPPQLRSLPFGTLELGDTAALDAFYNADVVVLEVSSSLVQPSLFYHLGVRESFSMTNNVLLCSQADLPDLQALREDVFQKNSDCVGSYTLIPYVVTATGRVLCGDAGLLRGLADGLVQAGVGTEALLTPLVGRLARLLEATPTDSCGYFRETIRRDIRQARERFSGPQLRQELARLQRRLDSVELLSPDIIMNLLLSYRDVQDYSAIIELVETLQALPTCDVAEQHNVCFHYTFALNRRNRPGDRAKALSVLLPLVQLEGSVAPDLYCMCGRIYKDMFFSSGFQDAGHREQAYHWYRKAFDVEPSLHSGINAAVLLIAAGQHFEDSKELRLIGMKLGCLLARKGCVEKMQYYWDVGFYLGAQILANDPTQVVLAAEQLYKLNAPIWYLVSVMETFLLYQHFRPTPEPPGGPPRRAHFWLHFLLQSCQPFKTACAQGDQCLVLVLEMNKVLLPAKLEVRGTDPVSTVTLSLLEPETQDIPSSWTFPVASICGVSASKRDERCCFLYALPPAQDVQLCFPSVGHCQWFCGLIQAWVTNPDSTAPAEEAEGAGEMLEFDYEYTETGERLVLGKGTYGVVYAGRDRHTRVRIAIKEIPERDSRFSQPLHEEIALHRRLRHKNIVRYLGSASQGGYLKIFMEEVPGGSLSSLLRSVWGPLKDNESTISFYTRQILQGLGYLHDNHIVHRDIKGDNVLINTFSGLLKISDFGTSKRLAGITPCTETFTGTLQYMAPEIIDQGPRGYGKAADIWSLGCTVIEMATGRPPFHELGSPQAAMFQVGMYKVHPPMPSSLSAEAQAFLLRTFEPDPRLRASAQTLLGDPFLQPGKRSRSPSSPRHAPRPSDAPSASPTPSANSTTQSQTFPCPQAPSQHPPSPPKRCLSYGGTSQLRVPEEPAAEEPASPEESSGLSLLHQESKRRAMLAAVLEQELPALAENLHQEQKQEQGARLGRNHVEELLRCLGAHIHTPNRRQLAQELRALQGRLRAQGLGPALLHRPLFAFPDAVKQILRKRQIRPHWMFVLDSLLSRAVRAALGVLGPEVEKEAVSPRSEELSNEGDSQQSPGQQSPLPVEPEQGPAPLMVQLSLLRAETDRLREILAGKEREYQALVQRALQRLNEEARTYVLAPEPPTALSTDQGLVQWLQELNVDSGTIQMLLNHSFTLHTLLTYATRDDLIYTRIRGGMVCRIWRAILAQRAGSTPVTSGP

The target in assay [3] is Serine/threonine-protein kinase/endoribonuclease IRE1 (Homo sapiens, UniProt O75460).
Chain of Serine/threonine-protein kinase/endoribonuclease IRE1 (O75460 whole entry): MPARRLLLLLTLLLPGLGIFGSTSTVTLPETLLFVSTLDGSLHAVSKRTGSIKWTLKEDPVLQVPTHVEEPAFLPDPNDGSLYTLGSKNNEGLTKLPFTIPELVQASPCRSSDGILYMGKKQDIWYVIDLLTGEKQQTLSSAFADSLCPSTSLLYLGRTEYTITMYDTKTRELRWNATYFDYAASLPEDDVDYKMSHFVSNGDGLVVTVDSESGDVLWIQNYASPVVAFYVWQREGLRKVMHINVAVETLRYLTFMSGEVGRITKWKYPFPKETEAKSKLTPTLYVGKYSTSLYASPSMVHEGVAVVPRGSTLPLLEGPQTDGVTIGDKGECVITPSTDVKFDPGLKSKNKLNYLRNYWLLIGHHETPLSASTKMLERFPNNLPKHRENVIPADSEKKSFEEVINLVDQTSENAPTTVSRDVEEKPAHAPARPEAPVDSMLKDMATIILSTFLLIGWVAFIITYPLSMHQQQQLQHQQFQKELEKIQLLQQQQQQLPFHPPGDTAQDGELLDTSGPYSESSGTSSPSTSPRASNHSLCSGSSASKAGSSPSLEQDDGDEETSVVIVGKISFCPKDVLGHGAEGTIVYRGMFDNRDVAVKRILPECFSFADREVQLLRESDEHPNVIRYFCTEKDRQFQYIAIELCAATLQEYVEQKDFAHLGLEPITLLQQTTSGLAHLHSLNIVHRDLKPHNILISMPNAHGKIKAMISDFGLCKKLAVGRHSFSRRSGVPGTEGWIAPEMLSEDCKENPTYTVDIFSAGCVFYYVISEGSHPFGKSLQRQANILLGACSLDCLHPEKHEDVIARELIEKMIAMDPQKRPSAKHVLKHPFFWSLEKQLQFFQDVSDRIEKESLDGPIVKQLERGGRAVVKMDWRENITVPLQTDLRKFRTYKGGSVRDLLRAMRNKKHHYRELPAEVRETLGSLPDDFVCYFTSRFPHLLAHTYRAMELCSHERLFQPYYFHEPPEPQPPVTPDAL
Assay [4] concerns the target TRAF2 and NCK-interacting protein kinase (Homo sapiens, UniProt Q9UKE5).
The target in a further assay is T2, Glycine--tRNA ligase (Homo sapiens, UniProt P41250).
T2 sequence (P41250 whole entry): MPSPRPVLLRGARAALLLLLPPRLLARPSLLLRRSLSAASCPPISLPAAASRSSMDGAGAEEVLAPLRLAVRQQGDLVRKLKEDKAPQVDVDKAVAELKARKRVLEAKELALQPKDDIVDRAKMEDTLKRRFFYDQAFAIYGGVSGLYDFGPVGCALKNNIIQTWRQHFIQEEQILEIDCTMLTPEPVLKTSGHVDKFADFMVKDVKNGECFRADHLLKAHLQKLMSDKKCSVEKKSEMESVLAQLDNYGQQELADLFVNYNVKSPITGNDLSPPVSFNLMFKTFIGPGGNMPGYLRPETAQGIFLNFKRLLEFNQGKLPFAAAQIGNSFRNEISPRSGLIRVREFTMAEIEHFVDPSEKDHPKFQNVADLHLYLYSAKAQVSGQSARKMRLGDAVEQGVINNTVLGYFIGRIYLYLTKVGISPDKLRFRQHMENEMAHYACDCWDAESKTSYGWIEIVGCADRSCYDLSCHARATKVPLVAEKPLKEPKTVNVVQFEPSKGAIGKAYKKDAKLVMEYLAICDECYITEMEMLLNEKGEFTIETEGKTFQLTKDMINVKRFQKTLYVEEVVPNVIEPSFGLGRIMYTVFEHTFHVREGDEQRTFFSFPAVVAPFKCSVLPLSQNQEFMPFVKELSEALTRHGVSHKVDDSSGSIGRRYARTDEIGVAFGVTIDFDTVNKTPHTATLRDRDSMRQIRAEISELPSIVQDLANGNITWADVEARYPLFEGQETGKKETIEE

The target of assay [5] is T3, Ferrochelatase, mitochondrial (Homo sapiens, UniProt P22830).
T3 sequence (P22830 whole entry): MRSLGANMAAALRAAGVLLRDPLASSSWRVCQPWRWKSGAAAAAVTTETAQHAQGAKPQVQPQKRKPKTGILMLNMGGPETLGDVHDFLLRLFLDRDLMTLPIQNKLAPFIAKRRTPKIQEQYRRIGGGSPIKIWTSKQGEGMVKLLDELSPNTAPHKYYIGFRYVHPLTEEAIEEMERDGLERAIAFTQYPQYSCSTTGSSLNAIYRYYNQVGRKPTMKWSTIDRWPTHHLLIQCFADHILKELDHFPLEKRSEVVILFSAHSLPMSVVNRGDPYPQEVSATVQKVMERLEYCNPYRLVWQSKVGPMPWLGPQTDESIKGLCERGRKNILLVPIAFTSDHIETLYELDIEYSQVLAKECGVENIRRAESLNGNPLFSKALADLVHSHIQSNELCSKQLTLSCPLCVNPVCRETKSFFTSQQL

The target in assay [6] is Mitogen-activated protein kinase kinase kinase 20 (Homo sapiens, UniProt Q9NYL2).
Chain of Mitogen-activated protein kinase kinase kinase 20 (Q9NYL2 whole entry): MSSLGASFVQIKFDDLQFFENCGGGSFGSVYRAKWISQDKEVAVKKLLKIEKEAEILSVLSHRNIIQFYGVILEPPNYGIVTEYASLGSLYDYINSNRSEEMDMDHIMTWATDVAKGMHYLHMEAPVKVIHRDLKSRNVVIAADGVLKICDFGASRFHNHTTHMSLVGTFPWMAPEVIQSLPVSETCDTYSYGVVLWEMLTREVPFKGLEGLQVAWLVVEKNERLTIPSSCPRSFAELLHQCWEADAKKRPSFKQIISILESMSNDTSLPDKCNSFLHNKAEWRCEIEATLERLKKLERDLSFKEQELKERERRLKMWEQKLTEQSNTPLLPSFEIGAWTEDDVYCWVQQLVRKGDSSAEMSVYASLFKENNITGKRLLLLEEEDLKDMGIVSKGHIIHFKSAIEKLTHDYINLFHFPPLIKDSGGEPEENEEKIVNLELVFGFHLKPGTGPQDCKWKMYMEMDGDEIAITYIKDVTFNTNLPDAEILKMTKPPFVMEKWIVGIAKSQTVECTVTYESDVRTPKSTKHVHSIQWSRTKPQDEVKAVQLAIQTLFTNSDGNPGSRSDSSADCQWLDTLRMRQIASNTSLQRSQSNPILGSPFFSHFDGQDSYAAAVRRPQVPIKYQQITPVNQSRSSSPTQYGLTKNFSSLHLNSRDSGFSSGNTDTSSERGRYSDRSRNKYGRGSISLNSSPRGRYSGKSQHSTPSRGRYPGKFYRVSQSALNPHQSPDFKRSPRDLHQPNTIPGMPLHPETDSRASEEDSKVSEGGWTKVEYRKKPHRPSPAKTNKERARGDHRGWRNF
In a further assay the target is Myosin-14 (Homo sapiens, UniProt Q7Z406).
Note: in the data inactive means no Kd found up to 30 µM.

Chain of Calcium/calmodulin-dependent protein kinase type II subunit gamma (Q13555 whole entry): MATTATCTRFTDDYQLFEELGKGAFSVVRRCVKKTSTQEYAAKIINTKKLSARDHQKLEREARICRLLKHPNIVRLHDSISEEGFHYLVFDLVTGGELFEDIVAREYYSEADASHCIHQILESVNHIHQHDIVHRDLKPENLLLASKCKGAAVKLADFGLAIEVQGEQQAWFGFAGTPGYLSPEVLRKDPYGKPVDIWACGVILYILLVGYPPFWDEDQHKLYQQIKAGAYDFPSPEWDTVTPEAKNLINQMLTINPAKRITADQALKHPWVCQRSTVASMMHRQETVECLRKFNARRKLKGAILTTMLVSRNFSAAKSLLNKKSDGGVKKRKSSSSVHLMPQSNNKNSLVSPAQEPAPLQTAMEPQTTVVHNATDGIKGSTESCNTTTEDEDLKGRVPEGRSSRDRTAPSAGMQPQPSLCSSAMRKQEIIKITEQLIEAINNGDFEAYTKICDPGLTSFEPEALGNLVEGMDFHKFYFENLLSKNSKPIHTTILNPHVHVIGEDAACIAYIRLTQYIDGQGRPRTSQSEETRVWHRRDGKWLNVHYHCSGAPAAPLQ
Chain of TRAF2 and NCK-interacting protein kinase (Q9UKE5 whole entry): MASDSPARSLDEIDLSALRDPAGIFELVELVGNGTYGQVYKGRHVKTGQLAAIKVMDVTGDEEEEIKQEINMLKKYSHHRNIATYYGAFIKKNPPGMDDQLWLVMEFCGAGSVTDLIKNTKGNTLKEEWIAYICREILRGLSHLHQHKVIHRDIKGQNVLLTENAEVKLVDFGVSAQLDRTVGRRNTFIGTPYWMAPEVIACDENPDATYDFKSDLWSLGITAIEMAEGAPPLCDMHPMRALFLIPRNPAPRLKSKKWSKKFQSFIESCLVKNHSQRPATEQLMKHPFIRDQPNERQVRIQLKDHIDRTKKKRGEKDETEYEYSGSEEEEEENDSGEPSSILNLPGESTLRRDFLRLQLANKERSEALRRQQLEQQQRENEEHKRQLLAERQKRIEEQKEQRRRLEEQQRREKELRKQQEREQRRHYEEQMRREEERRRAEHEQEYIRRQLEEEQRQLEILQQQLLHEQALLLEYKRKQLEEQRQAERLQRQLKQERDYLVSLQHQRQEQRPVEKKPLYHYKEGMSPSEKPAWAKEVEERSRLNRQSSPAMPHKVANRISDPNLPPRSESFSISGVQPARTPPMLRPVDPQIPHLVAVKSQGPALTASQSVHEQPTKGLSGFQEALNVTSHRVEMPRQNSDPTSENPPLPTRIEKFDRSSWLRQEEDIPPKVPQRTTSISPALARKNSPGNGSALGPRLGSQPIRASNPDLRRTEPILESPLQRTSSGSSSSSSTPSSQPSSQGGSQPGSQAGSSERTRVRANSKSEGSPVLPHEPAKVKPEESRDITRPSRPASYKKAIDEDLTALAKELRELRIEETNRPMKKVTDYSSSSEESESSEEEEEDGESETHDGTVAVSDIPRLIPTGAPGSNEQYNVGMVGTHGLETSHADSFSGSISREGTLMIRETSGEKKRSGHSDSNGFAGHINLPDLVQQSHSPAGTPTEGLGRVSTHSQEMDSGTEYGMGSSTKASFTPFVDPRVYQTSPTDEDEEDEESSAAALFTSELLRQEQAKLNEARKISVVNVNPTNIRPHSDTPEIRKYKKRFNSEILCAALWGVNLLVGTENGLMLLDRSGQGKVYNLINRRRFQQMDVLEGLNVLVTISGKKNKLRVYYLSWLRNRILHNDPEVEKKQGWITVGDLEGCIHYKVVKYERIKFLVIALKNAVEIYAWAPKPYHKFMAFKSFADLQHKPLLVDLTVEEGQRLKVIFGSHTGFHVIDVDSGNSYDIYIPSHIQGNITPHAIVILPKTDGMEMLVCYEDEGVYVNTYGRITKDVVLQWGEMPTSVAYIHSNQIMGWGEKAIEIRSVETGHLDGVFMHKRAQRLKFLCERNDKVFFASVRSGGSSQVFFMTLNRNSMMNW

As usually defined, the Kd is a measure of binding affinity in units of concentration. `Cc1ccc(S(=O)(=O)Nc2nc3ccccc3nc2Nc2ccc3nsnc3c2)cc1`: the Kd (in assay [1]; in assay [2]; in assay [3]; in assay [4]; at Glycine--tRNA ligase; in assay [5]) was > 30 µM (inactive) throughout. In addition, the Kd in assay [6] was > 30 µM (inactive).
As for `COc1cc(OC)c(/C=C/S(=O)(=O)Cc2ccc(OC)c(NCC(=O)O)c2)c(OC)c1` [RIGOSERTIB], the Kd is > 30 µM (inactive) in assay [1]; > 30 µM (inactive) in assay [2]; > 30 µM (inactive) in assay [3]; > 30 µM (inactive) in assay [4]; > 30 µM (inactive) at Glycine--tRNA ligase; 5.58 µM (active) in assay [5]. The Kd in assay [6] was > 30 µM (inactive).
Turning to `CCn1c(-c2nonc2N)nc2c(C#CC(C)(C)O)ncc(OC[C@H]3CCCNC3)c21` [GSK-690693], the Kd at Myosin-14 is > 30 µM (inactive); at Glycine--tRNA ligase, > 30 µM (inactive); in assay [5], 2.7 µM (active).
Regarding `Cc1cc(Nc2cc(N3CCN(C)CC3)nc(/C=C/c3ccccc3)n2)n[nH]1` [ENMD-2076], the Kd (at Myosin-14; in assay [2]; in assay [3]; at Glycine--tRNA ligase; in assay [5]) was > 30 µM (inactive) in each case.
`COC(=O)N[C@@H](C)CNc1nccc(-c2cn(C(C)C)nc2-c2cc(Cl)cc(NS(C)(=O)=O)c2F)n1` [ENCORAFENIB]: the Kd (on Myosin-14; in assay [1]; in assay [2]; in assay [3]; in assay [4]; on Glycine--tRNA ligase) was > 30 µM (inactive) in each case. Further, the Kd in assay [5] was > 30 µM (inactive).
As to `Cc1c(F)cc(C(=O)NC2CC2)cc1-c1ccc(C(=O)NCC(C)(C)C)cn1` [LOSMAPIMOD], the Kd (in assay [1]; in assay [2]; in assay [3]; at Glycine--tRNA ligase; in assay [5]; in assay [6]) was > 30 µM (inactive) throughout.
As for `C=CC(=O)N1CCC(Oc2cc3c(Nc4ccc(Cl)c(Cl)c4F)ncnc3cc2OC)CC1` [POZIOTINIB], the Kd (in assay [1]; in assay [2]; in assay [3]; in assay [4]; at Glycine--tRNA ligase; in assay [5]) was > 30 µM (inactive) each time. For the same molecule, the Kd in assay [6] is > 30 µM (inactive).
As for `Nc1nc(N)c2nc(-c3cccc(O)c3)c(-c3cccc(O)c3)nc2n1` [TG100-115], the Kd (at Glycine--tRNA ligase; in assay [5]) was > 30 µM (inactive) in each case.
Consider `CN1CCN(c2ccc3nc(-c4c(N)c5c(F)cccc5[nH]c4=O)[nH]c3c2)CC1` [DOVITINIB], for which the Kd (on Myosin-14; on Glycine--tRNA ligase; in assay [5]) was > 30 µM (inactive) in each case.
As for `O=C(Nc1cccc(Cl)c1)Nc1ncc(CCNc2ncnc3ccsc23)s1` [SNS-314], the Kd (at Myosin-14; in assay [2]; in assay [4]; at Glycine--tRNA ligase; in assay [5]) was > 30 µM (inactive) in each case.
As to `C1=C/COCc2cc(ccc2OCCN2CCCC2)Nc2nccc(n2)-c2cccc(c2)COC/1` [PACRITINIB], the Kd is > 30 µM (inactive) at Myosin-14; > 30 µM (inactive) in assay [1]; > 30 µM (inactive) in assay [2]; > 30 µM (inactive) in assay [3]; 0.089 µM in assay [4]; > 30 µM (inactive) at Glycine--tRNA ligase. Further, the Kd in assay [5] was 67.9 µM (active).
`CN1CCC(COc2cnc(-c3cccc(Cn4nc(-c5cccc(C#N)c5)ccc4=O)c3)nc2)CC1` [TEPOTINIB]: the Kd (in assay [1]; in assay [2]; in assay [3]; in assay [4]; at Glycine--tRNA ligase; in assay [5]) was > 30 µM (inactive) in each case. Further, the Kd in assay [6] was > 30 µM (inactive).
Consider `COc1cc2nccc(Oc3ccc(NC(=O)Nc4cc(C)on4)c(Cl)c3)c2cc1OC` [TIVOZANIB], for which the Kd (on Myosin-14; in assay [1]; in assay [2]; in assay [3]; on Glycine--tRNA ligase; in assay [5]) was > 30 µM (inactive) in each case.
As to `COc1cc(N2CCC(N3CCN(C)CC3)CC2)ccc1Nc1ncnc(Nc2ccccc2S(=O)(=O)C(C)C)n1` [ASP-3026], the Kd in assay [1] was 1.41 µM (active); in assay [2], > 30 µM (inactive); in assay [3], 12.2 µM (active); in assay [4] it was > 30 µM (inactive); on Glycine--tRNA ligase it was > 30 µM (inactive); in assay [5], > 30 µM (inactive). Also, the Kd in assay [6] was > 30 µM (inactive).
`Cc1nc(N)sc1-c1ccnc(Nc2ccc(N3CCOCC3)cc2)n1` [CYC-116]: the Kd is > 30 µM (inactive) on Myosin-14; > 30 µM (inactive) in assay [2]; > 30 µM (inactive) in assay [3]; 2.14 µM (active) in assay [4]; > 30 µM (inactive) at Glycine--tRNA ligase; 0.783 µM (active) in assay [5].
For the molecule `CN(C)C(=O)c1cc2cnc(Nc3ccc(N4CCNCC4)cn3)nc2n1C1CCCC1` [RIBOCICLIB], the Kd is 0.247 µM (active) in assay [1]; > 30 µM (inactive) in assay [2]; > 30 µM (inactive) in assay [3]; > 30 µM (inactive) in assay [4]; > 30 µM (inactive) at Glycine--tRNA ligase; 12.3 µM in assay [5]. Further, the Kd in assay [6] was > 30 µM (inactive).
With `Cc1cn(-c2cc(NC(=O)c3ccc(C)c(Nc4nccc(-c5cccnc5)n4)c3)cc(C(F)(F)F)c2)cn1` [NILOTINIB], the Kd at Myosin-14 and on Glycine--tRNA ligase was > 30 µM (inactive) in each case.
